Experiment [1] deals with pERK in H358 cells. The experiment can be described thus: pERK inhibition in H358 cells. Particulars: 4 hours treatment, read-out: Cellular pERK inhibition. In kind it is cell-based, human. In a few lines: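 Human lung cancer H358 cells in RPMI/10% FBS were exposed to compound or DMSO for 4 h. Fixed and permeabilized cells were stained overnight at 4 C with anti-phospho-ERK1/2 (Thr202/Tyr204). Near-infrared imaging read the pERK signal at 800 nm, with DRAQ5 at 700 nm.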

Experiment [2] has as its target T1, BRAF-GTP-KRAS-G12C complex (Homo sapiens, UniProt P01116, G12C).
T1 construct: 50 nM of His6-KRas G12C-GTP (1-169)
The experiment can be described thus: KRAS-BRAF complex disruption TR-FRET without CYPA (presenter dependence). In kind it is biochemical. The procedure: In this example, TR-FRET was used to measure the compound-facilitated disruption of a KRAS-BRAF complex. A mixture of tagless Cyclophilin A, His6-KRAS G12C-GMP-PNP, and GST-BRAF RAS binding domain was added to a 384-well assay plate containing compounds of the invention and incubated for 3 hours. A mixture of Anti-His Eu-W1024 and anti-GST allophycocyanin was then added and the reaction was incubated for an additional 1.5 hours. TR-FRET signal was read on an EnVision microplate reader (Perkin Elmer, Ex 320 nm, Em 665/615 nm). Compounds that facilitate disruption of a KRAS_BRAF complex were identified as those eliciting a decrease in the TR-FRET ratio relative to DMSO control wells. To determine the presenter-dependence of the compound-mediated KRAS-BRAF complex disruption, Cyclophilin A was left out of the initial incubation (see Table 5). To determine G12C specificity of the compound-mediated KRAS-BRAF complex disruption, wild-type KRAS was used instead of G12C KRAS (see Table 5).
Reagents and Instrument • Tagless CYPA; 519 μM in PBS buffer, pH 7.4 • GST BRAF; 110 μM in PBS buffer, pH 7.4 • His6-KRASG12C-GMP-PNP; 50 μM in PBS buffer, pH 7.4 • His6-KRASWT-GMP-PNP; 40 μM in PBS buffer, pH 7.4 • Anti-His Eu-W1024 (LANCE® Eu-W1024; Perkin Elmer) • Anti-GST allophycocyanin (Anti-GST IgG conjugated to SureLight®-Allophycocyanin; Perkin Elmer; Product Number AD0059G) • Test compounds, 10 mM in 100% DMSO • EnVision (Perkin Elmer) • Combi MultiDrop liquid dispenser with 8-channel small volume cassette • 384-well ProxiPlate (black)
Experimental Protocol • 1. Use Mosquito to dispense 100 nL/well of compounds (varying concentration in […]) into 384-well black ProxiPlate to make assay-ready-plate (ARP). • 2. Make assay buffer containing 25 mM Hepes pH 7.3, 100 mM NaCl, 5 mM MgCl2, 0.05% BSA, and 0.002% Tween-20. • 3. Make PRE-MIX A: delivers final concentrations of 50 nM of His6-KRas G12C-GTP (1-169) and 500 nM of tagless CypA (1-165) in assay buffer. • a. […] Read on EnVision (Ex: 320 nm; Em1: 615 nm; Em2: 665 nm). • 8. […]
On the technique in general: TR-FRET usually uses a lanthanide donor and a delayed reading to cut background.

T1 sequence (P01116 1-169 isoform P01116-2 G12C, one chain of several): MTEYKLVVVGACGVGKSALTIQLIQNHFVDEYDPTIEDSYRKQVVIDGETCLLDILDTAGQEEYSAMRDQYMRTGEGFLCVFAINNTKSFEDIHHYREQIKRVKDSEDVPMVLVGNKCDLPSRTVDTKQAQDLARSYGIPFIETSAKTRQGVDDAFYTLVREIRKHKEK

`CC1COC(=O)C2CCCN(N2)C(=O)C(NC(=O)C(C(C)C)N(C)C(=O)C2CN(C(=O)CCl)C2)Cc2cc(O)cc(c2)-c2ccc3c(c2)c(cn3CC2COC2)C1` (mixture of isomers) [Compound 226]: the IC50 in experiment [1] was 1 to 10 µM; in experiment [2] it was more than 30 µM.

As for `CC1COC(=O)C2CCCN(N2)C(=O)C(NC(=O)C(C(C)C)N(C)C(=O)C2CN(C(=O)CCl)C2)Cc2cc(O)cc(c2)-c2ccc3c(S(C)(=O)=O)cn(c3c2)C1` (single isomer, unassigned) [Compound 110], the IC50 is 1 to 10 µM in experiment [1] and more than 30 µM in experiment [2].
